Assays:
[1] = system: E. coli CysC (JM81A complemented with M. tuberculosis CysC); assay: microbe, parasite or virus in culture; type: cell-based; conditions: Escherichia coli, read-out: percent inhibition of growth
[2] = system: E. coli CysH (JM81A complemented with M. smegmatis CysH); assay: microbe, parasite or virus in culture; type: cell-based; conditions: Escherichia coli; E. coli CysH strain; 25 μg/mL of compound; read-out: percent inhibition of growth
[3] = system: E. coli BioB (JM81A control strain containing the BioB gene); assay: microbe, parasite or virus in culture; type: cell-based; conditions: Escherichia coli, 25 μg/mL of compound, read-out: percent inhibition of growth
[4] = target: T1, M. tuberculosis CysC (APS kinase) (Mycobacterium tuberculosis, UniProt P9WNM5); type: biochemical
T1 construct: made in house; host or cells: E. coli BL21 STAR, plasmid pET28b(+)CysC
T1 sequence (P9WNM5 442-614 limits assumed): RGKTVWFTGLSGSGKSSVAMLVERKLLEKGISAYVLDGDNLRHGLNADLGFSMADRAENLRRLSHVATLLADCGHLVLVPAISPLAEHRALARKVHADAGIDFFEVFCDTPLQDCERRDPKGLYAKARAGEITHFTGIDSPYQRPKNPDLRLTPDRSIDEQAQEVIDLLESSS

APS kinase of E. coli = APS kinase of E. coli (Escherichia coli, UniProt P0A6J1); conditions: cited from earlier work
Chain of APS kinase of E. coli (P0A6J1 whole entry): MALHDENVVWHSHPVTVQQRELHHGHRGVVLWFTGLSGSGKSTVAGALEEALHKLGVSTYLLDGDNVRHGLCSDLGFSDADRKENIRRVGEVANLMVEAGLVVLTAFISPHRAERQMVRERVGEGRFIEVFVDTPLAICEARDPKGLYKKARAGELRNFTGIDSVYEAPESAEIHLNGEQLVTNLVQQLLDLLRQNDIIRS

Q: Which inhibition at 25 µg/mL [1] does the source give for Nc1ccc(S(=O)(=O)Nc2cnc3ccccc3n2)cc1 here?
A: 94%

Q: And the inhibition at 25 µg/mL [2]?
A: 29%

Q: What about the inhibition at 25 µg/mL [3] of the same molecule?
A: 77%

Q: With [N-]=[N+]=Nc1ccc(S(=O)(=O)Nc2ncccn2)cc1 as the molecule, how does the inhibition at 25 µg/mL [1] read?
A: 95%

Q: What about the inhibition at 25 µg/mL [2] of the same molecule?
A: 0%

Q: What about the inhibition at 25 µg/mL [3] of the same molecule?
A: 85%

Q: Which results are given for CC(=N/Nc1nc2ccccc2s1)/N=N/c1cccc(O)c1?
A: inhibition at 25 µg/mL [1]: 47%; inhibition at 25 µg/mL [2]: 0%; inhibition at 25 µg/mL [3]: 0%

Q: For O=C(O)c1ccccc1N[C@H](c1ccccc1)c1ccc2cccnc2c1O, which inhibition at 25 µg/mL [1] is on record?
A: 93%

Q: What about the inhibition at 25 µg/mL [2] of the same molecule?
A: 25%

Q: And the inhibition at 25 µg/mL [3]?
A: 1%

Q: What does the source list for CCN(CC)CC[n+]1ccc2c(C)c3[nH]c4ccccc4c3c(C)c2c1?
A: inhibition at 25 µg/mL [1]: 98%; inhibition at 25 µg/mL [2]: 97%; inhibition at 25 µg/mL [3]: 0%

Q: What does the source list for O=C1Oc2ccccc2C(=O)/C1=C/Nc1ncc(-c2ccc(O)c(O)c2)s1?
A: inhibition at 25 µg/mL [1]: 78%; inhibition at 25 µg/mL [2]: 90%; inhibition at 25 µg/mL [3]: 0%

Q: With Nc1ncnc2c1ncn2[C@@H]1O[C@H](COP(=O)(O)OS(=O)(=O)O)[C@@H](O)[C@H]1O [APS, adenylyl phosphosulfate] as the molecule, how does the VmaxE0 [4] read?
A: 1.05 s⁻¹

Q: And the “VmaxE0 (two-fold decrease)” value [4]?
A: 611 mM⁻¹ s⁻¹

Q: And the “apparent VmaxE0” value [4]?
A: 0.85 ± 0.04 s⁻¹

Q: And the Km (APS kinase of E. coli)?
A: 250 nM

Q: For Nc1ncnc2c1ncn2[C@@H]1O[C@H](COP(=O)(O)OP(=O)(O)OP(=O)(O)O)[C@@H](O)[C@H]1O [ATP], which “apparent VmaxE0” value [4] is on record?
A: 0.95 ± 0.03 s⁻¹

Q: And the Km ([4]; read-out: apparent Km)?
A: 910 ± 100 µM

Source: patent US6863895B2, “Mycobacterial sulfation pathway proteins and methods of use thereof” (priority 2001, dated 2005)
